Measured values from patent US12570655B2, “Cysteine covalent modifiers of AKT1 and uses thereof” (Terremoto Biosciences, Inc., priority 2023, dated 2026).
pIC50: −log10 of the molar value. Like-named read-outs stand apart in the source and are kept apart here.

Key:
Assay type in all cases: cell-based
AKT2 = target: T1, AKT2 (Homo sapiens, UniProt P31751); assay: Live cell AKT2 target engagement by NanoBRET competitive probe displacement; conditions: HEK293 cells transfected with kinase-NanoLuciferase fusion, 2 h at 37° C.
T1 construct: expressed in transfected cells; host or cells: HEK293
In short: (§1)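 HEK293 cells transiently expressing kinase–NanoLuciferase fusions (overnight transfection) were treated with serial compound dilutions plus fluorescent ATP-competitive tracer at ~EC50 concentration for 2 h at 37 °C. BRET ratio E600/E460 measured after substrate and extracellular luciferase inhibitor addition; IC50 from log(inhibitor)–response Hill fit.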

AKT1 WT = target: T2, AKT1 WT (Homo sapiens, UniProt P31749); assay: Live cell AKT1 WT target engagement by NanoBRET competitive probe displacement; conditions: HEK293 cells transfected with kinase-NanoLuciferase fusion, 2 h at 37° C.
T2 construct: expressed in transfected cells; host or cells: HEK293
In short: as §1

AKT1 E17K = target: T3, AKT1 E17K (Homo sapiens, UniProt P31749, E17K); assay: Live cell AKT1 E17K target engagement by NanoBRET competitive probe displacement; conditions: HEK293 cells transfected with kinase-NanoLuciferase fusion, 2 h at 37° C.
T3 construct: expressed in transfected cells; host or cells: HEK293
In short: as §1

[1] = system: LAPC4 prostate cancer cells; assay: Antiproliferative effects in LAPC4 cells (CellTiter Glo); conditions: LAPC4 cells (AKT1 E17K allele), read-out: LAPC4 proliferation IC50
In short: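 LAPC4 cells were cultured in IMDM with 12% FBS and 1% P/S, seeded at 1,000 cells/well and exposed to compound dilutions in DMSO. After 72 h, intracellular ATP was measured by CellTiter Glo luminescence, and IC50 values came from a log(inhibitor) vs. response Hill fit.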

T1 sequence (P31751 whole entry, the tested form may be a part): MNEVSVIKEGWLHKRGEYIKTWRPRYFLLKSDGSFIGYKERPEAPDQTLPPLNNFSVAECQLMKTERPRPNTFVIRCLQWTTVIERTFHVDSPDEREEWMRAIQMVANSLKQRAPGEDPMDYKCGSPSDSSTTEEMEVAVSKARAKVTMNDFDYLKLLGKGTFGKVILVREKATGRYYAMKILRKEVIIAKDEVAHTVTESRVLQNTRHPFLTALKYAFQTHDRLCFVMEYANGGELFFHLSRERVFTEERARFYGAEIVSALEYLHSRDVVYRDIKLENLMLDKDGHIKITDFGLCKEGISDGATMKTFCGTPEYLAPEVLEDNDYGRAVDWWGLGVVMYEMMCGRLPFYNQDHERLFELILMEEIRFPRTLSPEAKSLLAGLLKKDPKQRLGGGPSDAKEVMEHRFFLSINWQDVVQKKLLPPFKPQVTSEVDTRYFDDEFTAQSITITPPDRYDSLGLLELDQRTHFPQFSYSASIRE
T3 sequence (P31749 whole entry E17K, the tested form may be a part): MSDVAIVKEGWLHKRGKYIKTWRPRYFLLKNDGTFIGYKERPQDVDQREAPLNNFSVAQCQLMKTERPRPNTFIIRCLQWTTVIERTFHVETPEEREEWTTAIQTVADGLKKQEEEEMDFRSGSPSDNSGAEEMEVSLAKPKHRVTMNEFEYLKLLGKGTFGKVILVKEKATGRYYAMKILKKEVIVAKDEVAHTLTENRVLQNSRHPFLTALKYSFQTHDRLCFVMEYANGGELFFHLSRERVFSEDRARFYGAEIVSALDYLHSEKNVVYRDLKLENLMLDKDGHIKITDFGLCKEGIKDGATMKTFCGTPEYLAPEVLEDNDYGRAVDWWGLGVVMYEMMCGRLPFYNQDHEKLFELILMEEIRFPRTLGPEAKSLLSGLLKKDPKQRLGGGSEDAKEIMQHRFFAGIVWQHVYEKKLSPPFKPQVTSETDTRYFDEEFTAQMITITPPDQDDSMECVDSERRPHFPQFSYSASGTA
T2 sequence (P31749 whole entry, the tested form may be a part): as the sequence (P31749 whole entry E17K, the tested form may be a part) above, with K17E counted along it

Compound	pIC50 (AKT2)	pIC50 (AKT1 WT)	pIC50 (AKT1 E17K)	pIC50 ([1]; Homo sapiens, LAPC4, 72 h)	pIC50 ([1]; 72 h)
C=CC(=O)Nc1cccc(F)c1C(=O)N[C@H]1CCc2cc(-n3c(-c4cccnc4N)nc4ccc(-n5cccn5)nc43)ccc21 [Example 6, N-[(1S)-5-[2-(2-aminopyridin-3-yl)-5-(pyrazol-1-yl)imidazo[4,5-b]pyridin-3-yl]-2,3-dihydro-1H-inden-1-yl]-2-fluoro-6-(prop-2-enamido)benzamide]	7.66	7.92	7.70	6.84	
C=CC(=O)N1CCC(N[C@H]2CCc3cc(-n4c(-c5cccnc5N)nc5ccc(-c6nnc(C)s6)nc54)ccc32)CC1 [Example 257, (S)-1-(4-((5-(2-(2-aminopyridin-3-yl)-5-(5-methyl-1,3,4-thiadiazol-2-yl)-3H-imidazo[4,5-b]pyridin-3-yl)-2,3-dihydro-1H-inden-1-yl)amino)piperidin-1-yl)prop-2-en-1-one]	7.14	6.36	7.86	6.99	
C#Cc1cccc(-c2ccc3nc(-c4cccnc4N)n(-c4ccc5c(c4)CC[C@@H]5NC4CCN(C(=O)C=C)CC4)c3n2)c1 [Example 178, 1-(4-{[(1S)-5-[2-(2-aminopyridin-3-yl)-5-(3-ethynylphenyl)imidazo[4,5-b]pyridin-3-yl]-2,3-dihydro-1H-inden-1-yl]amino}piperidin-1-yl)prop-2-en-1-one]	7.57	7.48	7.74	7.15	
C=CC(=O)N1CC2(CCC(N[C@H]3CCc4cc(-n5c(-c6cccnc6N)nc6ccc(-n7cccn7)nc65)ccc43)CC2)C1 [Example 32, 1-(7-{[(1S)-5-[2-(2-aminopyridin-3-yl)-5-(pyrazol-1-yl)imidazo[4,5-b]pyridin-3-yl]-2,3-dihydro-1H-inden-1-yl]amino}-2-azaspiro[3.5]nonan-2-yl)prop-2-en-1-one]	7.38	7.88	8.00	7.85	
C=CC(=O)N1CCC(N[C@H]2CCc3cc(-n4c(-c5cccnc5N)nc5ccc(-n6ccc(C7CCOCC7)n6)nc54)ccc32)CC1 [Example 321, 1-(4-{[(1S)-5-[2-(2-aminopyridin-3-yl)-5-[3-(oxan-4-yl)pyrazol-1-yl]imidazo[4,5-b]pyridin-3-yl]-2,3-dihydro-1H-inden-1-yl]amino}piperidin-1-yl)prop-2-en-1-one]	7.62	6.80	8.14	7.09	
C=CC(=O)N1CCC(N[C@H]2CCc3cc(-n4c(-c5cccnc5N)nc5ccc(-n6cccn6)nc54)ccc32)C(C)(F)C1 (stereo partly drawn) [Example 308, 1-((3*)-4-(((S)-5-(2-(2-aminopyridin-3-yl)-5-(1H-pyrazol-1-yl)-3H-imidazo[4,5-b]pyridin-3-yl)-2,3-dihydro-1H-inden-1-yl)amino)-3-fluoro-3-methylpiperidin-1-yl)prop-2-en-1-one]	7.21	6.51	7.93	6.52	
C=CC(=O)N1CCC(N[C@H]2CCc3cc(-n4c(-c5cccnc5N)nc5ccc(-n6nccn6)nc54)ccc32)CC1 [Example 33, 1-(4-{[(1S)-5-[2-(2-aminopyridin-3-yl)-5-(1,2,3-triazol-2-yl)imidazo[4,5-b]pyridin-3-yl]-2,3-dihydro-1H-inden-1-yl]amino}piperidin-1-yl)prop-2-en-1-one]	6.82	7.67	7.68	7.28	
C=CC(=O)N1CCC(N[C@H]2CCc3cc(-n4c(-c5cccnc5N)nc5ccc(C)nc54)ccc32)CC1 [Example 50, (S)-1-(4-((5-(2-(2-aminopyridin-3-yl)-5-methyl-3H-imidazo[4,5-b]pyridin-3-yl)-2,3-dihydro-1H-inden-1-yl)amino)piperidin-1-yl)prop-2-en-1-one]	6.46	7.75	7.02	6.79	
C=CC(=O)N1CCC(N[C@H]2CCc3cc(-n4c(-c5cccnc5N)nc5c(C#N)cc(-n6cccn6)nc54)ccc32)CC1 [Example 315, 2-(2-aminopyridin-3-yl)-3-[(1S)-1-{[1-(prop-2-enoyl)piperidin-4-yl]amino}-2,3-dihydro-1H-inden-5-yl]-5-(pyrazol-1-yl)imidazo[4,5-b]pyridine-7-carbonitrile]	7.15	6.74	7.84	6.92	
C=CC(=O)N1CCC(N[C@H]2CCc3cc(-n4c(-c5cccnc5N)nc5ccc(N6CC7CCC(C6)O7)nc54)ccc32)CC1 [Example 258, 1-(4-{[(1S)-5-[2-(2-aminopyridin-3-yl)-5-{8-oxa-3-azabicyclo[3.2.1]octan-3-yl}imidazo[4,5-b]pyridin-3-yl]-2,3-dihydro-1H-inden-1-yl]amino}piperidin-1-yl)prop-2-en-1-one]	6.04	5.88	7.02	6.28	
C=CC(=O)N1CCC(N[C@H]2CCc3cc(-n4c(-c5cccnc5N)nc5ccc(-n6cccn6)nc54)ccc32)C(OC)C1 (single isomer, unassigned) [Example 117, 1-((3*,4*)-4-(((S)-5-(2-(2-aminopyridin-3-yl)-5-(1H-pyrazol-1-yl)-3H-imidazo[4,5-b]pyridin-3-yl)-2,3-dihydro-1H-inden-1-yl)amino)-3-methoxypiperidin-1-yl)prop-2-en-1-one]	6.11	7.38	6.32		6.25
C=CC(=O)N1CCC(N[C@H]2CCc3cc(-n4c(-c5cccnc5N)nc5ccc(-n6cccn6)nc54)ccc32)C(OC)C1 (single isomer, unassigned) [Example 115, 1-((3*,4*)-4-(((S)-5-(2-(2-aminopyridin-3-yl)-5-(1H-pyrazol-1-yl)-3H-imidazo[4,5-b]pyridin-3-yl)-2,3-dihydro-1H-inden-1-yl)amino)-3-methoxypiperidin-1-yl)prop-2-en-1-one]	7.39	8.09	8.03		7.39
C=CC(=O)NCc1ccccc1C(=O)N[C@H]1CCc2cc(-n3c(-c4cccnc4N)nc4ccc(-n5nccn5)nc43)ccc21 [Example 263, (S)-N-[(1S)-5-[2-(2-aminopyridin-3-yl)-5-(1,2,3-triazol-2-yl)imidazo[4,5-b]pyridin-3-yl]-2,3-dihydro-1H-inden-1-yl]-2-(prop-2-enamidomethyl)benzamide]	6.82	5.53	7.40	6.17	
C=CC(=O)N1CCC(N[C@H]2CCc3cc(-n4c(-c5cccnc5N)nc5ccc(C6CCC6)nc54)ccc32)CC1 [Example 195, 1-(4-{[(1S)-5-[2-(2-aminopyridin-3-yl)-5-cyclobutylimidazo[4,5-b]pyridin-3-yl]-2,3-dihydro-1H-inden-1-yl]amino}piperidin-1-yl)prop-2-en-1-one]	7.09	6.38	8.13	6.50	
C=CC(=O)N1CCC(N[C@H]2CC(O)c3cc(-n4c(-c5cccnc5N)nc5ccc(-n6cccn6)nc54)ccc32)CC1 (single isomer, unassigned) [Example 218, 1-(4-(((1S,3*)-5-(2-(2-aminopyridin-3-yl)-5-(1H-pyrazol-1-yl)-3H-imidazo[4,5-b]pyridin-3-yl)-3-hydroxy-2,3-dihydro-1H-inden-1-yl)amino)piperidin-1-yl)prop-2-en-1-one]	6.85	6.44	7.28		6.65
C=CC(=O)N1CCC(N[C@H]2CCc3cc(-n4c(-c5cccnc5N)nc5ccc(-n6ccc(COC)n6)nc54)ccc32)CC1 [Example 280, 1-(4-{[(1S)-5-[2-(2-aminopyridin-3-yl)-5-[3-(methoxymethyl)pyrazol-1-yl]imidazo[4,5-b]pyridin-3-yl]-2,3-dihydro-1H-inden-1-yl]amino}piperidin-1-yl)prop-2-en-1-one]	7.09	6.90	7.69	6.98	
C=CC(=O)N1C[C@H]2C[C@@H](C1)C2N[C@H]1CCc2cc(-n3c(-c4cccnc4N)nc4ccc(-n5cccn5)nc43)ccc21 (single isomer, unassigned) [Example 60, 1-((1R,5S,6*)-6-(((S)-5-(2-(2-aminopyridin-3-yl)-5-(1H-pyrazol-1-yl)-3H-imidazo[4,5-b]pyridin-3-yl)-2,3-dihydro-1H-inden-1-yl)amino)-3-azabicyclo[3.1.1]heptan-3-yl)prop-2-en-1-one]	5.77	< 6.00	6.39		5.86
C=CC(=O)N1[C@H](C)CC(N[C@H]2CCc3cc(-n4c(-c5cccnc5N)nc5ccc(-n6cccn6)nc54)ccc32)C[C@@H]1C (single isomer, unassigned) [Example 87, 1-((2S,4*,6R)-4-(((R)-5-(2-(2-aminopyridin-3-yl)-5-(1H-pyrazol-1-yl)-3H-imidazo[4,5-b]pyridin-3-yl)-2,3-dihydro-1H-inden-1-yl)amino)-2,6-dimethylpiperidin-1-yl)prop-2-en-1-one]	6.24	7.59	6.78		6.44
C=CC(=O)N1CCC(N[C@H]2CCc3cc(-n4c(-c5cccnc5N)nc5ccc(-n6cccn6)nc54)ccc32)C(O)C1 (single isomer, unassigned) [Example 140, 1-[(3*,4*)-4-{[(1S)-5-[2-(2-aminopyridin-3-yl)-5-(pyrazol-1-yl)imidazo[4,5-b]pyridin-3-yl]-2,3-dihydro-1H-inden-1-yl]amino}-3-hydroxypiperidin-1-yl]prop-2-en-1-one]	5.45	6.43	< 6.00		5.83
